Measurements as given in patent US8952024B2, “Herbicidal pyrimidone derivatives” (E I du Pont de Nemours and Company, priority 2009, dated 2015).

Legend:
Assay in all cases: Test B pre-/postemergence plant response
Format in all cases: in vivo
[1] = test system: morningglory (Ipomoea coccinea)
Method in brief: (§1)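 Response scores were assigned visually after 13 to 15 days in a greenhouse, comparing treated pots with controls on a 0–100 scale where 100 denotes complete control. Preemergence treatments went onto freshly seeded loam/sand soil; postemergence treatments onto plants 2 to 18 cm tall.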

wild oat (Avena fatua) = test system: wild oat (Avena fatua)
Method in brief: as §1

[2] = test system: large crabgrass (Digitaria sanguinalis)
Method in brief: as §1

[3] = test system: lambsquarters (Chenopodium album)
Method in brief: as §1

kochia (Kochia scoparia) = test system: kochia (Kochia scoparia)
Method in brief: as §1

[4] = test system: blackgrass (Alopecurus myosuroides)
Method in brief: as §1

[5] = test system: velvetleaf (Abutilon theophrasti); conditions: for Plant response rating, Velvetleaf: Postemergence
Method in brief: as §1

[6] = test system: green foxtail (Setaria viridis)
Method in brief: as §1

[7] = test system: woolly cupgrass (Eriochloa villosa)
Method in brief: as §1

[8] = test system: pigweed (Amaranthus retroflexus)
Method in brief: as §1

[9] = test system: goosegrass (Eleusine indica)
Method in brief: as §1

[10] = test system: Surinam grass (Brachiaria decumbens); conditions: for Plant response rating, Surinam Grass: Postemergence
Method in brief: as §1

[11] = test system: downy bromegrass (Bromus tectorum)
Method in brief: as §1

corn (Zea mays) = test system: corn (Zea mays)
Method in brief: as §1

[12] = test system: johnsongrass (Sorghum halepense)
Method in brief: as §1

[13] = test system: yellow nutsedge (Cyperus esculentus)
Method in brief: as §1

soybean (Glycine max) = conditions: for Plant response rating, Soybean: Postemergence
Method in brief: as §1

[14] = 31 g ai/ha, postemergence, scale 0 to 100, 0 is no effect, 100 is complete control
[15] = 62 g ai/ha, postemergence, 0 is no effect, 100 is complete control, 13 to 15 days
[16] = Postemergence, 125 g ai/ha, scale 0 to 100 (0 no effect, 100 complete control)
[17] = Postemergence, 250 g ai/ha, scale 0 to 100 (0 no effect, 100 complete control)
[18] = 125 g ai/ha, scale 0 to 100 (0 no effect, 100 complete control)
[19] = 250 g ai/ha, scale 0 to 100 (0 no effect, 100 complete control)
[20] = Postemergence, 31 g ai/ha, 0 to 100 scale (0 no effect, 100 complete control)
[21] = Postemergence, 125 g ai/ha, scale 0 (no effect) to 100 (complete control), 13 to 15 days
[22] = Postemergence, 250 g ai/ha, scale 0 to 100 (0 no effect, 100 complete control), 13 to 15 days
[23] = Postemergence, 62 g ai/ha, scale 0 to 100 (0 no effect, 100 complete control)
[24] = 31 g ai/ha, 0 to 100 scale (0 no effect, 100 complete control)
[25] = 125 g ai/ha, scale 0 (no effect) to 100 (complete control), 13 to 15 days
[26] = 250 g ai/ha, scale 0 to 100 (0 no effect, 100 complete control), 13 to 15 days
[27] = 62 g ai/ha, scale 0 to 100 (0 no effect, 100 complete control)

**Q.** Which “Plant response rating, Morningglory” value [1, 14] does the source give for `O=C1CCCC(O)=C1C(=O)c1cnc(-c2ccsc2)n(CC2CCCO2)c1=O` (stereo not shown) [Compound 98] here?
**A.** 70

**Q.** And the “Morningglory plant response rating (0 to 100 scale)” value [1, 15]?
**A.** 85

**Q.** And the “Plant response rating, Morningglory” value [1, 16]?
**A.** 100

**Q.** What about the “Plant response rating, Morningglory” value [1, 17] of the same compound?
**A.** 100

**Q.** What about the “Plant response rating, Oat, Wild” value (wild oat (Avena fatua); [14]) of the same compound?
**A.** 10

**Q.** What about the “Oat, Wild plant response rating (0 to 100 scale)” value (wild oat (Avena fatua); [15]) of the same compound?
**A.** 20

**Q.** And the “Plant response rating, Oat, Wild” value (wild oat (Avena fatua); [16])?
**A.** 20

**Q.** And the “Plant response rating, Oat, Wild” value (wild oat (Avena fatua); [17])?
**A.** 50

**Q.** What about the “Plant response rating, Crabgrass, Large” value [2, 14] of the same compound?
**A.** 75

**Q.** What about the “Crabgrass, Large plant response rating (0 to 100 scale)” value [2, 15] of the same compound?
**A.** 75

**Q.** What about the “Plant response rating, Crabgrass, Large” value [2, 16] of the same compound?
**A.** 80

**Q.** And the “Plant response rating, Crabgrass, Large” value [2, 17]?
**A.** 95

**Q.** And the “Plant response rating, Lambsquarters” value [3, 14]?
**A.** 95

**Q.** And the “Lambsquarters plant response rating (0 to 100 scale)” value [3, 15]?
**A.** 98

**Q.** And the “Plant response rating, Lambsquarters” value [3, 16]?
**A.** 100

**Q.** And the “Plant response rating, Lambsquarters” value [3, 17]?
**A.** 100

**Q.** What about the “Plant response rating, Kochia” value (kochia (Kochia scoparia); [14]) of the same compound?
**A.** 65

**Q.** What about the “Kochia plant response rating (0 to 100 scale)” value (kochia (Kochia scoparia); [15]) of the same compound?
**A.** 70

**Q.** What about the “Plant response rating, Kochia” value (kochia (Kochia scoparia); [16]) of the same compound?
**A.** 80

**Q.** What about the “Plant response rating, Kochia” value (kochia (Kochia scoparia); [17]) of the same compound?
**A.** 98

**Q.** And the “Plant response rating, Blackgrass” value [4, 14]?
**A.** 0

**Q.** And the “Blackgrass plant response rating (0 to 100 scale)” value [4, 15]?
**A.** 5

**Q.** And the “Plant response rating, Blackgrass” value [4, 16]?
**A.** 20

**Q.** What about the “Plant response rating, Blackgrass” value [4, 17] of the same compound?
**A.** 50

**Q.** And the “Velvetleaf plant response rating (0 to 100 scale)” value [5, 15]?
**A.** 95

**Q.** And the “Plant response rating, Velvetleaf” value [5, 18]?
**A.** 95

**Q.** What about the “Plant response rating, Velvetleaf” value [5, 19] of the same compound?
**A.** 98

**Q.** What about the “Plant response rating, Foxtail, Green” value [6, 14] of the same compound?
**A.** 30

**Q.** What about the “Foxtail, Green plant response rating (0 to 100 scale)” value [6, 15] of the same compound?
**A.** 85

**Q.** What about the “Plant response rating, Foxtail, Green” value [6, 16] of the same compound?
**A.** 85

**Q.** What about the “Plant response rating, Foxtail, Green” value [6, 17] of the same compound?
**A.** 95

**Q.** What about the “Plant response rating, Cupgrass, Woolly” value [7, 14] of the same compound?
**A.** 65

**Q.** And the “Cupgrass, Woolly plant response rating (0 to 100 scale)” value [7, 15]?
**A.** 70

**Q.** And the “Plant response rating, Cupgrass, Woolly” value [7, 16]?
**A.** 75

**Q.** What about the “Plant response rating, Cupgrass, Woolly” value [7, 17] of the same compound?
**A.** 95

**Q.** What about the “Plant response rating, Pigweed” value [8, 14] of the same compound?
**A.** 100

**Q.** What about the “Pigweed plant response rating (0 to 100 scale)” value [8, 15] of the same compound?
**A.** 100

**Q.** What about the “Plant response rating, Pigweed” value [8, 16] of the same compound?
**A.** 100

**Q.** What about the “Plant response rating, Pigweed” value [8, 17] of the same compound?
**A.** 100

**Q.** What about the “Plant response rating, Goosegrass” value [9, 14] of the same compound?
**A.** 60

**Q.** And the “Goosegrass plant response rating (0 to 100 scale)” value [9, 15]?
**A.** 75

**Q.** And the “Plant response rating, Goosegrass” value [9, 16]?
**A.** 80

**Q.** And the “Plant response rating, Goosegrass” value [9, 17]?
**A.** 90

**Q.** What about the “Surinam Grass plant response rating (0 to 100 scale)” value [10, 15] of the same compound?
**A.** 75

**Q.** What about the “Plant response rating, Surinam Grass” value [10, 18] of the same compound?
**A.** 85

**Q.** What about the “Plant response rating, Surinam Grass” value [10, 19] of the same compound?
**A.** 90

**Q.** What about the “Plant response rating, Bromegrass, Downy” value [11, 14] of the same compound?
**A.** 5

**Q.** And the “Bromegrass, Downy plant response rating (0 to 100 scale)” value [11, 15]?
**A.** 5

**Q.** What about the “Plant response rating, Bromegrass, Downy” value [11, 16] of the same compound?
**A.** 5

**Q.** What about the “Plant response rating, Bromegrass, Downy” value [11, 17] of the same compound?
**A.** 40

**Q.** And the “Plant response rating, Corn” value (corn (Zea mays); [14])?
**A.** 35

**Q.** And the “Corn plant response rating (0 to 100 scale)” value (corn (Zea mays); [15])?
**A.** 35

**Q.** What about the “Plant response rating, Corn” value (corn (Zea mays); [16]) of the same compound?
**A.** 55

**Q.** And the “Plant response rating, Corn” value (corn (Zea mays); [17])?
**A.** 70

**Q.** What about the “Plant response rating, Johnsongrass” value [12, 14] of the same compound?
**A.** 55

**Q.** And the “Johnsongrass plant response rating (0 to 100 scale)” value [12, 15]?
**A.** 70

**Q.** And the “Plant response rating, Johnsongrass” value [12, 16]?
**A.** 75

**Q.** What about the “Plant response rating, Johnsongrass” value [12, 17] of the same compound?
**A.** 98

**Q.** And the “Plant response rating, Nutsedge, Yellow” value [13, 14]?
**A.** 50

**Q.** And the “Nutsedge, Yellow plant response rating (0 to 100 scale)” value [13, 15]?
**A.** 60

**Q.** And the “Plant response rating, Nutsedge, Yellow” value [13, 16]?
**A.** 70

**Q.** And the “Plant response rating, Nutsedge, Yellow” value [13, 17]?
**A.** 75

**Q.** What about the “Soybean plant response rating (0 to 100 scale)” value (soybean (Glycine max); [15]) of the same compound?
**A.** 98

**Q.** What about the “Plant response rating, Soybean” value (soybean (Glycine max); [18]) of the same compound?
**A.** 98

**Q.** What about the “Plant response rating, Soybean” value (soybean (Glycine max); [19]) of the same compound?
**A.** 100

**Q.** What does the source list for `CCCCn1c(-c2ccccc2)ncc(C(=O)C2=C(O)C3CCC(C3)C2=O)c1=O` (stereo not shown) [Compound 240]?
**A.** Plant response rating, Oat, Wild (wild oat (Avena fatua); [20]): 25; Plant response rating, Oat, Wild (wild oat (Avena fatua); [21]): 45; Plant response rating, Oat, Wild (wild oat (Avena fatua); [22]): 60; Plant response rating, Oat, Wild (wild oat (Avena fatua); [23]): 40; Plant response rating, Crabgrass, Large [2, 20]: 80; Plant response rating, Crabgrass, Large [2, 21]: 100; Plant response rating, Crabgrass, Large [2, 22]: 100; Plant response rating, Crabgrass, Large [2, 23]: 98; Plant response rating, Lambsquarters [3, 20]: 98; Plant response rating, Lambsquarters [3, 21]: 100; Plant response rating, Lambsquarters [3, 22]: 100; Plant response rating, Lambsquarters [3, 23]: 100; Plant response rating, Kochia (kochia (Kochia scoparia); [20]): 80; Plant response rating, Kochia (kochia (Kochia scoparia); [21]): 100; Plant response rating, Kochia (kochia (Kochia scoparia); [22]): 100; Plant response rating, Kochia (kochia (Kochia scoparia); [23]): 98; Plant response rating, Blackgrass [4, 20]: 40; Plant response rating, Blackgrass [4, 21]: 65; Plant response rating, Blackgrass [4, 22]: 65; Plant response rating, Blackgrass [4, 23]: 50; Plant response rating, Velvetleaf [5, 24]: 75; Plant response rating, Velvetleaf [5, 25]: 85; Plant response rating, Velvetleaf [5, 26]: 100; Plant response rating, Velvetleaf [5, 27]: 85; Plant response rating, Foxtail, Green [6, 20]: 90; Plant response rating, Foxtail, Green [6, 21]: 95; Plant response rating, Foxtail, Green [6, 22]: 98; Plant response rating, Foxtail, Green [6, 23]: 90; Plant response rating, Cupgrass, Woolly [7, 20]: 98; Plant response rating, Cupgrass, Woolly [7, 21]: 100; Plant response rating, Cupgrass, Woolly [7, 22]: 100; Plant response rating, Cupgrass, Woolly [7, 23]: 100; Plant response rating, Pigweed [8, 21]: 100; Plant response rating, Pigweed [8, 22]: 100; Plant response rating, Pigweed [8, 23]: 100; Plant response rating, Goosegrass [9, 20]: 95; Plant response rating, Goosegrass [9, 21]: 98; Plant response rating, Goosegrass [9, 22]: 98; Plant response rating, Goosegrass [9, 23]: 98; Plant response rating, Surinam Grass [10, 24]: 95; Plant response rating, Surinam Grass [10, 25]: 100; Plant response rating, Surinam Grass [10, 26]: 100; Plant response rating, Surinam Grass [10, 27]: 98; Plant response rating, Bromegrass, Downy [11, 20]: 10; Plant response rating, Bromegrass, Downy [11, 21]: 25; Plant response rating, Bromegrass, Downy [11, 22]: 50; Plant response rating, Bromegrass, Downy [11, 23]: 20; Plant response rating, Corn (corn (Zea mays); [20]): 90; Plant response rating, Corn (corn (Zea mays); [21]): 100; Plant response rating, Corn (corn (Zea mays); [22]): 100; Plant response rating, Corn (corn (Zea mays); [23]): 95; Plant response rating, Johnsongrass [12, 21]: 100; Plant response rating, Johnsongrass [12, 22]: 100; Plant response rating, Johnsongrass [12, 23]: 100; Plant response rating, Nutsedge, Yellow [13, 20]: 10; Plant response rating, Nutsedge, Yellow [13, 21]: 20; Plant response rating, Nutsedge, Yellow [13, 22]: 45; Plant response rating, Nutsedge, Yellow [13, 23]: 15; Plant response rating, Soybean (soybean (Glycine max); [24]): 95; Plant response rating, Soybean (soybean (Glycine max); [25]): 95; Plant response rating, Soybean (soybean (Glycine max); [26]): 100; Plant response rating, Soybean (soybean (Glycine max); [27]): 95
